Where a name gives a salt, the structure may show the parent alone. Read-outs that look alike come from different tables or passages of the source.
Experiments:
human OX2 receptor [1] = target: T1, human OX2 receptor (Homo sapiens, UniProt O43614); assay: Measurement of orexin type 2 receptor agonist activity (Experimental Example 3; calcium 5 dye, FLIPR Tetra); type: cell-based; conditions: compound at 1 μM; CHO cells expressing human OX2 receptor; DMSO = 0%, 10 nM orexin A (human) = 100%
T1 construct: expressed in transfected cells
T1 sequence (O43614 1-444): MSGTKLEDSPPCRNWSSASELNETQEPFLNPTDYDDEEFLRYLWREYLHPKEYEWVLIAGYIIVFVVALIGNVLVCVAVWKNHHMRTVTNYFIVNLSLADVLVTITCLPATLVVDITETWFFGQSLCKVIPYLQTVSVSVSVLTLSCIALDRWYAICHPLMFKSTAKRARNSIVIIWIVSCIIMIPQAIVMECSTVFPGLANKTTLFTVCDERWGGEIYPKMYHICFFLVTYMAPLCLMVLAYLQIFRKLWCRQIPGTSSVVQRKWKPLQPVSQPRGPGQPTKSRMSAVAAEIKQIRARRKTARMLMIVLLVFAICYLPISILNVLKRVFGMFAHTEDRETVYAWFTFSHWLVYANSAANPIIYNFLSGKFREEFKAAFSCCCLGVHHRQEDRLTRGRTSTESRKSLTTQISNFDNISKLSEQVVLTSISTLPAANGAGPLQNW
Description: In order to obtain cell clones that stably express human orexin type 2 receptor, human orexin type 2 (residues 1-444, NCBI Reference Sequence: AK314279) was constructed in a pcDNA3.1 (+) vector (Invitrogen) to express in mammalian cells. This plasmid DNA was transfected into CHO-K1 cells by electroporation, and stable clones were obtained by limiting dilution using resistance to G418 as a selection marker.
CHO cells in which human OX2 receptor was forcibly expressed were seeded at 5,000 cells/well into a 384-well black transparent bottom plate (Costar) in 25 ul complete media, and were then incubated at 37° C., 5% CO2 for 1 day. The next day, 25 ul of 2× calcium 5 dye (Molecular Devices) in assay buffer (HBSS (Thermo Fisher Scientific), 20 mM HEPES (Thermo Fisher Scientific), 2.5 mM probenecid). After incubation in a 5% CO2 incubator at 37° C. for 40 minutes, it was incubated at room temperature for another 20 minutes. Add 5 μL/well of the test compound diluted with assay buffer B (HBSS, 20 mM HEPES), using FLIPR Tetra (Molecular Devices) to measure the fluorescence value every 1 second for 1 minute, and then every 2 seconds for 1 minute. It was measured for 1 minute and 40 seconds. The amount of fluorescence value when DMSO is added instead of the test compound is defined as 0%, and the amount of fluorescence value when orexin A (human) (Peptide Institute) with a final concentration of 10 nM is added is defined as 100%. The activity (%) of the test compound was calculated.

[2] = other bond
human OX2 receptor [3] = target: T1, human OX2 receptor; assay: Measurement of orexin type 2 receptor agonist activity (Experimental Example 2; Fluo-4 AM calcium fluorescence, FDSS μCELL); type: cell-based; conditions: compound at 3 μM; CHO cells expressing human OX2 receptor; DMSO = 0%, 10 nM orexin A (human) = 100%
Summary of the method: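 Agonism was tested in CHO-K1 cells stably expressing human OX2 receptor (residues 1-444), loaded with Fluo-4 AM plus probenecid. Calcium fluorescence was recorded for 1 min 40 s after compound addition. Activity (%) was scaled between DMSO (0%) and 10 nM orexin A (100%) and reported at 3 μM compound.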

CC(C)S(=O)(=O)N[C@@H]1[C@@H]2Cc3cccc(c3F)Oc3nc(ccc3C(F)F)CNC(=O)N2CC1(F)F [Example 110, N-[(15aS,16R)-7-(difluoromethyl)-17,17,20-trifluoro-1-oxo-2,3,15a,16,17,18-hexahydro-1H,15H-4,8-(azeno)-10,14-(metheno)pyrrolo[1,2-j][1,8,10]oxadiazacyclo-heptadecin-16-yl]propane-2-sulfonamide]
OX2R agonist activity (1 μM, %) (human OX2 receptor [1]): 108%

CCS(=O)(=O)N[C@@H]1[C@@H]2Cc3cccc(c3F)[C@@H](C)c3nc(ccc3C)CNC(=O)N2CC1(F)F (single isomer, unassigned) [Example 105, N-[(9R,15aS,16R)-17,17,20-trifluoro-7,9-dimethyl-1-oxo-2,3,15a,16,17,18-hexahydro-1H,9H,15H-4,8-(azeno)-10,14-(metheno)pyrrolo[1,2-c][1,3]diazacycloheptadecin-16-yl]ethanesulfonamide or N-[(9S,15aS,16R)-17,17,20-trifluoro-7,9-dimethyl-1-oxo-2,3,15a,16,17,18-hexahydro-1H,9H,15H-4,8-(azeno)-10,14-(metheno)pyrrolo[1,2-c][1,3]diazacycloheptadecin-16-yl]ethanesulfonamide]
OX2R agonist activity (1 μM, %) (human OX2 receptor [1]): 106%

CCS(=O)(=O)N[C@@H]1[C@@H]2Cc3cccc(c3F)Cc3nc(ccc3C)OCC(=O)N2CC1(F)F [Example 102, N-[(15aS,16R)-17,17,20-trifluoro-7-methyl-1-oxo-1,2,15a,16,17,18-hexahydro-9H,15H-4,8-(azeno)-10,14-(metheno)pyrrolo[1,2-d][1,4]oxazacycloheptadecin-16-yl]ethanesulfonamide]
OX2R agonist activity (1 μM, %) (human OX2 receptor [1]): 94%

CCS(=O)(=O)N[C@@H]1[C@@H]2Cc3c(C)ccc(c3F)Oc3nc(ccc3C)CNC(=O)N2CC1(F)F [Example 98, N-[(15aS,16R)-17,17,20-trifluoro-7,13-dimethyl-1-oxo-2,3,15a,16,17,18-hexahydro-1H,15H-4,8-(azeno)-14,10-(metheno)pyrrolo[1,2-j][1,8,10]oxadiazacyclo-heptadecin-16-yl]ethanesulfonamide]
OX2R agonist activity (1 μM, %) (human OX2 receptor [1]): 65%

CCS(=O)(=O)N[C@@H]1[C@@H]2Cc3cccc(c3F)Cc3nc(ccc3C)CNC(=O)N2CC1(F)F [Example 104, N-[(15aS,16R)-17,17,20-trifluoro-7-methyl-1-oxo-2,3,15a,16,17,18-hexahydro-1H,9H,15H-4,8-(azeno)-10,14-(metheno)pyrrolo[1,2-c][1,3]diazacycloheptadecin-16-yl]ethanesulfonamide hydrochloride]
OX2R agonist activity (1 μM, %) (human OX2 receptor [1]): 109%

CCS(=O)(=O)N[C@@H]1[C@@H]2Cc3cccc(c3F)[C@H](C)c3nc(ccc3C)CNC(=O)N2CC1(F)F (single isomer, unassigned) [Example 106]
OX2R agonist activity (1 μM, %) (human OX2 receptor [1]): 90%

CCS(=O)(=O)N[C@@H]1[C@@H]2Cc3cccc(c3F)Cc3cc(ccc3C)CNC(=O)N2CC1(F)F [Example 103, N-[(15aS,16R)-17,17,20-trifluoro-7-methyl-1-oxo-2,3,15a,16,17,18-hexahydro-1H,9H,15H-4,8:10,14-di(metheno)pyrrolo[1,2-c][1,3]diazacycloheptadecin-16-yl]ethanesulfonamide]
OX2R agonist activity (1 μM, %) (human OX2 receptor [1]): 104%

CCS(=O)(=O)N[C@H]1[C@@H](F)CN2C(=O)NCc3ccc(C)c(n3)Cc3cccc(c3F)C[C@@H]12 [Example 56, N-[(15aS,16R,17S)-17,20-difluoro-7-methyl-1-oxo-2,3,15a,16,17,18-hexahydro-1H,9H,15H-8,4-(azeno)-10,14-(metheno)pyrrolo[1,2-c][1,3]diazacycloheptadecin-16-yl]ethanesulfonamide]
ring closure, yield of all isomers ([2]; from CCS(=O)(=O)N[C@@H]1[C@H](Cc2cccc(Cc3nc(CN)ccc3C)c2F)NC[C@@H]1F, di(N-succinimidyl) carbonate / 4-methylmorpholine, DIPEA, THF, 4.1 mM, 25.0 °C, 17.0 h): 3.9% | OX2R agonist activity (3 μM, %) (human OX2 receptor [3]): 100%

Cc1cc(F)c2nc1Oc1cccc(c1F)C[C@H]1[C@@H](NS(C)(=O)=O)C(F)(F)CN1C(=O)NC2 [Example 36, N-[(15aS,16R)-5,17,17,20-tetrafluoro-7-methyl-1-oxo-2,3,15a,16,17,18-hexahydro-1H,15H-4,8-(azeno)-14,10-(metheno)pyrrolo[1,2-j][1,8,10]oxadiazacyclo-heptadecin-16-yl]methanesulfonamide]
ring closure, yield of all isomers ([2]; from Cc1cc(F)c(CN)nc1Oc1cccc(C[C@@H]2NCC(F)(F)[C@@H]2NS(C)(=O)=O)c1F, di(N-succinimidyl) carbonate, THF, 2.95 mM, 60.0 °C, 1.5 h, 2 steps): 38.2% | OX2R agonist activity (3 μM, %) (human OX2 receptor [3]): 104%

Cc1cc(F)c2nc1Oc1cccc(c1F)C[C@H]1[C@@H](NS(=O)(=O)C(C)C)C(F)(F)CN1C(=O)NC2 [Example 109, N-[(15aS,16R)-5,17,17,20-tetrafluoro-7-methyl-1-oxo-2,3,15a,16,17,18-hexahydro-1H,15H-4,8-(azeno)-10,14-(metheno)pyrrolo[1,2-j][1,8,10]oxadiazacyclo-heptadecin-16-yl]propane-2-sulfonamide]
OX2R agonist activity (1 μM, %) (human OX2 receptor [1]): 108%

Cc1ccc2nc1OCc1cccc(c1)C[C@H]1[C@@H](NS(C)(=O)=O)CCN1C(=O)NC2 [Example 68, N-[(16aS,17S)-7-methyl-1-oxo-2,3,16a,17,18,19-hexahydro-1H,10H,16H-4,8-(azeno)-11,15-(metheno)pyrrolo[1,2-j][1,8,10]oxadiazacyclo-octadecin-17-yl]methanesulfonamide]
ring closure, yield of all isomers ([2]; from Cc1ccc(CNC(=O)OC(C)(C)C)nc1OCc1cccc(C[C@H]2[C@@H](N(COCC[Si](C)(C)C)S(C)(=O)=O)CCN2C(=O)OC(C)(C)C)c1, di(N-succinimidyl) carbonate / N-methylmorpholine, DIPEA, THF, 7.5 mM, 25.0 °C, 17.0 h, 2 steps): 3.7% | OX2R agonist activity (3 μM, %) (human OX2 receptor [3]): 100%

O=C1NCc2ccc(Cl)c(n2)Oc2cccc(c2F)C[C@H]2[C@@H](NS(=O)(=O)C3CC3)C(F)(F)CN12 [Example 22, N-[(15aS,16R)-7-chloro-17,17,20-trifluoro-1-oxo-2,3,15a,16,17,18-hexahydro-1H,15H-4,8-(azeno)-14,10-(metheno)pyrrolo[1,2-j][1,8,10]oxadiazacyclo-heptadecin-16-yl]cyclopropanesulfonamide]
ring closure, yield of all isomers ([2]; from NCc1ccc(Cl)c(Oc2cccc(C[C@@H]3NCC(F)(F)[C@@H]3NS(=O)(=O)C3CC3)c2F)n1, di(N-succinimidyl) carbonate, THF, 1.85 mM, 25.0 °C, 0.08 h): 49.4% | OX2R agonist activity (3 μM, %) (human OX2 receptor [3]): 100%

CC(C)S(=O)(=O)N[C@@H]1[C@@H]2Cc3cccc(c3F)Oc3nc(ccc3Cl)CNC(=O)N2CC1(F)F [Example 108, N-[(15aS,16R)-7-chloro-17,17,20-trifluoro-1-oxo-2,3,15a,16,17,18-hexahydro-1H,15H-4,8-(azeno)-10,14-(metheno)pyrrolo[1,2-j][1,8,10]oxadiazacyclo-heptadecin-16-yl]propane-2-sulfonamide]
OX2R agonist activity (1 μM, %) (human OX2 receptor [1]): 101%

Cc1ccc2nc1Oc1cccc(c1)C[C@H]1[C@@H](NS(C)(=O)=O)C(F)(F)CN1C(=O)NC2 [Example 2, N-[(15aS,16R)-17,17-difluoro-7-methyl-1-oxo-2,3,15a,16,17,18-hexahydro-1H,15H-4,8-(azeno)-10,14-(metheno)pyrrolo[1,2-j][1,8,10]oxadiazacyclo-heptadecin-16-yl]methanesulfonamide]
ring closure, yield of all isomers ([2]; from Cc1ccc(CN)nc1Oc1cccc(C[C@@H]2NCC(F)(F)[C@@H]2NS(C)(=O)=O)c1, CDI/DIPEA, DMF, 2.0 mM, 25.0 °C, 14.0 h): 7.6% | OX2R agonist activity (3 μM, %) (human OX2 receptor [3]): 96%

CCS(=O)(=O)N[C@@H]1[C@@H]2Cc3ccc(C)c(c3F)Oc3nc(ccc3C)CNC(=O)N2CC1(F)F [Example 101, N-[(15aS,16R)-17,17,20-trifluoro-7,11-dimethyl-1-oxo-2,3,15a,16,17,18-hexahydro-1H,15H-4,8-(azeno)-10,14-(metheno)pyrrolo[1,2-j][1,8,10]oxadiazacyclohept-adecin-16-yl]ethanesulfonamide]
OX2R agonist activity (1 μM, %) (human OX2 receptor [1]): 108%
